Literature values in patent US20220370561A1, “LITHIUM AS A MONOTHERAPY AND/OR STEM CELL ADJUVANT THERAPY FOR PULMONARY FIBROSIS” (Therapeutic Solutions International, Inc., priority 2021, published 2022).
Like-named read-outs stand apart in the source and are kept apart here.

How the values were obtained:
mesenchymal stem cells = details: culture of cells with valproic acid
p16/p21 pathway = details: in vitro pre-mature senescence model
[1] = danazol orally 800 mg per day
[2] = 12 months, exploratory analysis

elevated liver-enzyme levels of grade 2 or less, patients [1] [%] | muscle cramps of grade 2 or less, patients [1] [%] | Structure (SMILES) | immune regulatory and metabolic properties of mesenchymal stem cells (mesenchymal stem cells) | G2/M phase blockage derived from the senescence stress (p16/p21 pathway) | cell proliferation (p16/p21 pathway) | apoptosis (p16/p21 pathway; through suppression of the p16/p21 pathway) | hematologic responses (3 months, 19 of 24 evaluable patients) [%] | hematologic responses (24 months, 10 of 12 evaluable patients) [%] | mean increase in telomere length (telomere length; 6 months, exploratory analysis) [bp] | patients with increase in telomere length (telomere length; 6 months, exploratory analysis) | mean increase in telomere length (telomere length; [2]) [bp] | patients with increase in telomere length (telomere length; [2]) | mean increase in telomere length (telomere length; 24 months compared with baseline) [bp] | patients with a gain in telomere length compared with baseline (telomere length; 24 months, 11 of 12) [%] | telomere attrition in patients evaluable for the primary end point (telomere length; danazol orally 800 mg per day, 24 months) | patients meeting the primary efficacy end point (20% reduction in annual rate of telomere attrition), intention-to-treat (telomere length; danazol orally 800 mg per day, 24 months, 12 of 27 patients) [%]
 |  | CCCC(CCC)C(=O)O [valproic acid] | enhanced | inhibited the G2/M phase blockage | increased cell proliferation | inhibited apoptosis |  |  |  |  |  |  |  |  |  | 
41 | 33 | C#C[C@]1(O)CC[C@H]2[C@@H]3CCC4=Cc5oncc5C[C@]4(C)[C@H]3CC[C@@]21C [danazol] |  |  |  |  | 79 | 83 | 175 | 16 of 21 | 360 | 16 of 18 | 386 | 92 | reduced in all 12 patients | 44
